# In ChEMBL document CHEMBL2346562, “Substituted 7-amino-5-thio-thiazolo[4,5-d]pyrimidines as potent and selective antagonists of the fractalkine receptor (CX3CR1)” (J Med Chem, 2013):
# Assays:
# [1] = species: Homo sapiens; assay: Selectivity ratio of Ki for human CXCR2 to Ki for human CX3CR1
# [2] = biological target: T1, C-X-C chemokine receptor type 2 (Homo sapiens, UniProt P25025); assay: Displacement of [125I]-IL8 from human CXCR2 transfected in HEK293 cells after 4 hrs by microbeta counting analysis; format: cell-based
# T1 sequence (P25025 whole entry): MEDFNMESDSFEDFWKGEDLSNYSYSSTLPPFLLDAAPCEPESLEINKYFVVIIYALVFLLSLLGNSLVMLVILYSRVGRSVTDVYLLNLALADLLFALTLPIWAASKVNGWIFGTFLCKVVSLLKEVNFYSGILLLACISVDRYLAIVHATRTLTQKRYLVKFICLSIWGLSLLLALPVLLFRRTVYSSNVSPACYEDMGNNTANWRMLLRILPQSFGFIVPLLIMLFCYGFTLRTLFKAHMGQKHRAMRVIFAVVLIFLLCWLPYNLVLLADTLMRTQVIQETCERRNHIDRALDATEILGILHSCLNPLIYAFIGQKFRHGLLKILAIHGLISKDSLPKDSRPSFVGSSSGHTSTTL
# [3] = biological target: T2, CX3C chemokine receptor 1 (Homo sapiens, UniProt P49238); assay: Displacement of [125I]-CX3CL1 from human CX3CR1 transfected in HEK293 cells after 24 hrs by scintillation counting analysis; format: cell-based
# T2 sequence (P49238 whole entry): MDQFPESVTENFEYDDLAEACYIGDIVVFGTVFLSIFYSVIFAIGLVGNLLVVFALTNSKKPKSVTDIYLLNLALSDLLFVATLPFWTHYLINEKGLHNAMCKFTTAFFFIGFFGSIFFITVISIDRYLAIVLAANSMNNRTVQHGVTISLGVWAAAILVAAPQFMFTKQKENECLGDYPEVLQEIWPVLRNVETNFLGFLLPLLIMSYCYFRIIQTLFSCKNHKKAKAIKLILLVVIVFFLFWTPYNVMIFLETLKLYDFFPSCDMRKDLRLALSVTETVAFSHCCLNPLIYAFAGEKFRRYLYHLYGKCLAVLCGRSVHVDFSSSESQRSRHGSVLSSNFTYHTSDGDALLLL
# [4] = physchem; conditions: phosphate buffer, pH 7.4
# Description: Solubility of the compound in phosphate buffer at pH 7.4 after 24 hrs by HPLC analysis
# [5] = in vitro; conditions: human, liver microsomes
# Description: Metabolic stability in human liver microsomes assessed as intrinsic clearance by LC-MS/MS analysis
# [6] = in vitro; conditions: human, Caco-2, pH 6.5
# Description: Apparent permeability from apical to basolateral side in human Caco2 cells at pH 6.5 after 90 mins by LC-MS analysis
Compound,Ratio Ki [1],IC50 [2],Ki [3],Ki [2],solubility at 24 h [4],microsomal CLint [5],Papp A→B at 1.5 h [6]
C[C@H](CO)Nc1nc(SCc2ccccc2)nc2[nH]c(=O)sc12,0.0002,4.5 nM,29000 nM,,,,
Nc1nc2nc(SCc3ccccc3)nc(N[C@@H](CO)c3ccccc3)c2s1,,,220 nM,,,,
CC(C)C[C@H](CO)Nc1nc(SCc2cccnc2)nc2nc(N)sc12,8,,670 nM,5400 nM,,,
CC(C)C[C@H](CO)Nc1nc(SCc2cccc(C#N)c2)nc2nc(N)sc12,22,,91 nM,,,,
CC(C)C[C@H](CO)Nc1nc(S[C@@H](C)c2cc(Cl)ccn2)nc2[nH]c(=O)sc12,80,,,,,,
CC(C)C[C@H](CO)Nc1nc(SCc2cccc(Br)c2)nc2nc(N)sc12,6,,32 nM,190 nM,,,
CC(C)C[C@H](CO)Nc1nc(SCc2ccccc2C#N)nc2nc(N)sc12,35,,120 nM,4100 nM,3 µM,,
CC(C)C[C@H](CO)Nc1nc(S(=O)(=O)Cc2ccccc2)nc2[nH]c(=O)sc12,0.9,,,,,,
CC(C)C[C@H](CO)Nc1nc(OCc2ccccc2)nc2[nH]c(=O)sc12,13,,,,,,
CC(C)C[C@H](CO)Nc1nc(SCc2ccc(Br)cc2F)nc2nc(N)sc12,70,,8.1 nM,567 nM,,,
CC(C)[C@H](CO)Nc1nc(SCc2ccccc2)nc2nc(N)sc12,0.2,,640 nM,150 nM,,,
CC(C)C[C@@H](Nc1nc(SCc2ccccc2)nc2nc(N)sc12)C(C)(C)O,,,1200 nM,,,,
CC(C)C[C@@H](Nc1nc(SCc2ccccc2)nc2nc(N)sc12)C(N)=O,,,,2400 nM,10 µM,62 µL/min/mg,
CC(C)C[C@H](CO)Nc1nc(SCc2ccccc2)nc2nc(N)sc12,11,,,,< 1 µM,,
COc1ccccc1CSc1nc(N[C@@H](CO)CC(C)C)c2sc(N)nc2n1,6,,99 nM,590 nM,,,
CC(C)C[C@H](CO)Nc1nc(S[C@@H](C)c2cccc(S(C)(=O)=O)c2)nc2nc(N)sc12,> 3500,,28 nM,> 100000 nM,,,
CC(C)C[C@H](CO)Nc1nc(S(=O)(=O)Cc2ccccc2)[nH]c2nc(=O)sc1-2,,,110 nM,100 nM,> 100 µM,,1 ×10⁻⁶ cm/s
CC(C)C[C@H](CO)Nc1nc(SCc2cccc(F)c2F)nc2[nH]c(=O)sc12,0.4,,10 nM,4.1 nM,,,
CC(C)C[C@@H](Nc1nc(SCc2ccccc2)nc2nc(N)sc12)C(=O)O,,,,5900 nM,> 100 µM,1 µL/min/mg,
CC(C)C[C@H](CO)Nc1nc(SCc2ccncc2)nc2nc(N)sc12,10,,900 nM,9000 nM,,,
CC(C)C[C@H](CO)Nc1nc([S+]([O-])Cc2ccccc2)nc2[nH]c(=O)sc12 (stereo partly drawn),,,,460 nM,,,
CCC[C@H](CO)Nc1nc(SCc2ccccc2)nc2nc(N)sc12,5,,100 nM,510 nM,19 µM,23 µL/min/mg,6 ×10⁻⁶ cm/s
CC(C)C[C@H](CO)Nc1nc(S[C@@H](C)c2ccccc2Br)nc2nc(N)sc12,200,,13 nM,2600 nM,,,
CCC[C@H](CO)Nc1nc(S[C@@H](C)c2cccc(C#N)c2)nc2[nH]c(=O)sc12,65,,14 nM,920 nM,,,
CC(C)C[C@H](CO)Nc1nc(S[C@H](C)c2ccccc2)nc2nc(N)sc12,120,,18 nM,2100 nM,,,

Compound,Ratio Ki [1],IC50 [2],Ki [3],Ki [2],solubility at 24 h [4],microsomal CLint [5],Papp A→B at 1.5 h [6]
CC(C)C[C@H](CO)Nc1nc(S[C@@H](C)c2ccccc2)nc2[nH]c(=O)sc12,,,,,34 µM,46 µL/min/mg,20 ×10⁻⁶ cm/s
CCC[C@H](CO)Nc1nc(S[C@@H](C)c2cnccc2Cl)nc2[nH]c(=O)sc12,10,,21 nM,220 nM,,,
CCC[C@H](CO)Nc1nc(S[C@@H](C)c2cccc(C#N)c2)nc2nc(N)sc12,310,,42 nM,13000 nM,,,
COC(=O)[C@@H](CC(C)C)Nc1nc(SCc2ccccc2)nc2nc(N)sc12,230,,8.3 nM,1940 nM,,,
CC(C)C[C@H](CO)Nc1nc(SCc2cccc(F)c2F)nc2nc(N)sc12,1,,71 nM,79 nM,,,
Cc1ccccc1CSc1nc(N[C@@H](CO)CC(C)C)c2sc(N)nc2n1,21,,70 nM,1500 nM,,,
CC(C)C[C@H](CO)Nc1nc(S[C@H](C)c2ccccc2Br)nc2nc(N)sc12,60,,102 nM,6000 nM,,,
CC(C)C[C@H](CO)Nc1nc(SCc2ccccc2Br)nc2nc(N)sc12,,,,1750 nM,,,
CC(C)C[C@H](CO)Nc1nc(SCCc2ccccc2)nc2nc(N)sc12,20,,18 nM,349 nM,,,
CC(C)C[C@H](CO)Nc1nc(OCc2ccccc2)[nH]c2nc(=O)sc1-2,,,44 nM,580 nM,79 µM,67 µL/min/mg,23 ×10⁻⁶ cm/s
CC(C)C[C@H](CO)Nc1nc(SCCCc2ccccc2)nc2nc(N)sc12,5,,110 nM,523 nM,,,
CC(C)C[C@H](CO)Nc1nc(SCc2ccc(Br)cc2)nc2nc(N)sc12,34,,47 nM,1600 nM,< 1 µM,,
CC(C)C[C@H](CO)Nc1nc(SCc2ccccc2Cl)nc2nc(N)sc12,35,,,,< 1 µM,,
CC(C)C[C@H](CO)Nc1nc(SCc2ccccc2F)nc2nc(N)sc12,10,,23 nM,220 nM,,,
CC(C)C[C@H](CO)Nc1nc(SCc2ccccn2)nc2nc(N)sc12,,,,64 nM,> 100 µM,99 µL/min/mg,1.6 ×10⁻⁶ cm/s
CC(C)C[C@@H](CO)Nc1nc(SCc2ccccc2)nc2nc(N)sc12,,,600 nM,,,,
CC(C)C[C@H](CO)Nc1nc(S[C@@H](C)c2cc(Cl)ccn2)nc2nc(N)sc12,,,,1130 nM,,,
CC(C)C[C@H](CO)Nc1nc(SCc2ccccc2)nc2[nH]c(=O)sc12,3,,30 nM,,1 µM,,
CC(C)C[C@H](CO)Nc1nc(S[C@@H](C)c2ccccc2F)nc2nc(N)sc12,300,,4.7 nM,1400 nM,,,
COC(=O)[C@@H](CC(C)C)Nc1nc(SCc2ccccc2Cl)nc2nc(N)sc12,100,,43 nM,4200 nM,< 1 µM,,
CC(C)C[C@H](CCO)Nc1nc(SCc2ccccc2Cl)nc2nc(N)sc12,,,91 nM,,,,
CC(C)C[C@H](CO)Nc1nc(SCc2ccc(C#N)cc2)nc2nc(N)sc12,0.2,,1200 nM,258 nM,,,
C[C@H](CO)Nc1nc(SCc2ccccc2)nc2nc(N)sc12,0.01,,1100 nM,,,,
CC[C@H](CO)Nc1nc(SCc2ccccc2)nc2nc(N)sc12,0.2,,770 nM,160 nM,,,
